From patent US6265390A, “Methods for expressing nucleic acid sequences using nucleic acid constructs comprising hypoxia response elements” (Oxford Biomedica (UK) Limited, priority 1994, dated 2001)

Tests used:
[1] = tested on: endogenous human PGK-1 gene expression in HepG2 cells; experiment: RNA analysis of endogenous PGK-1 gene expression; type: cell-based; conditions: 100 μM, 16 hours, hypoxia 1% O2
Description: (§1) The cell lines used were HepG2 (human hepatoma), HeLa (human cervical carcinoma) and L cells (mouse fibroblast) grown in minimal essential medium, with Earle's salts, supplemented with fetal bovine serum (10%), glutamine (2 mM), penicillin (50 units/ml) and streptomycin sulfate (50 μg/ml). For assay of endogenous gene expression, and for preparation of nuclear extracts, cells were grown to approximately 70% confluence. […]
(§2) RNA was extracted, analysed by RNase protection, and quantitated as previously described (Pugh et al 1991). […]
(§3) For assay of endogenous PGK-1 gene expression 50 μg of RNA extracted from HepG2 cells was hybridised with a riboprobe which consisted of 121 bp from the 5' end of the exon 3 of the human PGK-1 gene, together with 68 bp of adjacent intron (obtained by PCR of genomic DNA and cloning by standard methods). […] In these experiments a small quantity (0.5 μg) of RNA extracted from K562 cells (a human […] cell line which expresses a globin mRNA abundantly) was added to each sample before hybridisation, and the samples were probed concurrently with the α97 probe in addition to the PGK-1 or LDH-A probe. […]

[2] = tested on: endogenous mouse LDH-A gene expression in L cells; experiment: RNA analysis of endogenous LDH-A gene expression; type: cell-based; conditions: 100 μM, 16 hours, hypoxia 1% O2
Description: as §1, §2, §3

[3] = tested on: MCF-7(-4) cells transfected with thymidine phosphorylase gene; experiment: Drug sensitivity of thymidine phosphorylase transfectant -4; type: cell-based, human; conditions: survival curve, FIG. 3
From the text: (§4) Human breast cancer cells of the cell line MCF-7 were transfected with a gene for thymidine phosphorylase. […] The gene is suitable for linking up with hypoxically-inducible promoters/enhancers.
(§5) Results of drug sensitivity experiments are shown in FIGS. 3-7. -7, -4, -12, +4 and +16 are all derivatives of MCF-7 which have been transfected with the thymidine phosphorylase gene.
(§6) Note that there is a log scale and therefore the IC50 (the concentration of drug required to inhibit growth by 50%) is more than 100 times lower for the transfectants -12 and -4. Therefore, the expression of one gene at a higher level can make these cells 100 times more sensitive to chemotherapy. Clearly there is variation depending on the level of expression and therefore we want to be able to switch on as high as possible. […] This means that it is the activation step that is important rather than downstream events.

[4] = tested on: MCF-7 wild-type and thymidine phosphorylase transfectant clones; experiment: Drug sensitivity of clones -4, -7, -12, -16, +4 compared with wild type; type: cell-based, human; conditions: FIG. 6
From the text: as §4, §5, §6

[5] = tested on: control (Wt) non-transfected HT1080 cells and transfectant cells (9-3C, M3); experiment: Drug sensitivity after hypoxic or normoxic treatment, control and transfectants; type: cell-based; conditions: 16 hours exposure, 24 hours drug, 96 hour growth delay
Description: (§7) Transfected cells (9-3C and M3) as described in Example 9 were tested for sensitivity to 5-FC. Cells were subjected to hypoxic exposure (16 hours), followed by exposure to 5-FC or 5-FU (24 hours), followed by a 96 hour growth delay.

[6] = tested on: M3 cells (HT1080 transfected with cytosine deaminase under PGK-1 promoter with 3 copies of P24); experiment: Hypoxia-induced pro-drug sensitisation, M3 cells; type: cell-based; conditions: 16 hours hypoxic exposure, 24 hours drug, 96 hour growth delay
Description: The PGK-1 hypoxia response element was evaluated within the context of the PGK-1 gene promoter (M3), the 9-27 gene promoter (9-3C) and the thymidine kinase gene promoter (sTK5). […] The promoters and PGK-1 hypoxia response elements were placed upstream of genes encoding the endothelial CD2 surface protein and the negative selectable marker cytosine deaminase. The 9-27 and thymidine kinase promoters were each used with 3 copies of the P18 PGK-1 element and the PGK-1 gene promoter was used with 3 copies of the P24 PGK-1 element. Transfected cells (9-3C and M3) as described in Example 9 were tested for sensitivity to 5-FC. Cells were subjected to hypoxic exposure (16 hours), followed by exposure to 5-FC or 5-FU (24 hours), followed by a 96 hour growth delay.

[7] = tested on: 9-3C cells (HT1080 transfected with cytosine deaminase under 9-27 promoter with 3 copies of P18); experiment: Hypoxia-induced pro-drug sensitisation, 9-3C cells; type: cell-based; conditions: 16 hours hypoxic exposure, 24 hours drug, 96 hour growth delay
Description: The PGK-1 hypoxia response element was evaluated within the context of the PGK-1 gene promoter (M3), the 9-27 gene promoter (9-3C) and the thymidine kinase gene promoter (sTK5).
The constructs were similar to those described in Example 7. The promoters and PGK-1 hypoxia response elements were placed upstream of genes encoding the endothelial CD2 surface protein and the negative selectable marker cytosine deaminase. The 9-27 and thymidine kinase promoters were each used with 3 copies of the P18 PGK-1 element and the PGK-1 gene promoter was used with 3 copies of the P24 PGK-1 element.
as §7

## C[C@@H]1C[C@@H]([C@H](O)CC2CC(=O)NC(=O)C2)C(=O)[C@@H](C)C1 [cycloheximide]
[1]
  effect on hypoxic induction of gene expression: abrogated the response to hypoxia
[2]
  effect on hypoxic induction of gene expression: abrogated the response to hypoxia

## O=c1[nH]cc(F)c(=O)[nH]1 [5FU, 5-fluorouracil]
[3]
  difference in sensitivity between WT and transfectant: relatively little difference
[4]
  difference in sensitivity of the cells: very little difference
[5]
  difference in sensitivity following hypoxic or normoxic treatment: no significant difference

## Nc1nc(=O)[nH]cc1F [5-FC, 5-fluorocytosine]
[6]
  sensitivity post-hypoxia: significantly more sensitive
[7]
  sensitivity post-hypoxia: significantly more sensitive
